{"source": "patent US9133180B2", "about": "“Aurora and FLT3 kinases modulators” (SAREUM LIMITED, priority 2012, dated 2015)", "key": {"[1]": {"target": "Aurora A kinase (Homo sapiens (Human), UniProt O14965)", "sequence (O14965 whole entry)": "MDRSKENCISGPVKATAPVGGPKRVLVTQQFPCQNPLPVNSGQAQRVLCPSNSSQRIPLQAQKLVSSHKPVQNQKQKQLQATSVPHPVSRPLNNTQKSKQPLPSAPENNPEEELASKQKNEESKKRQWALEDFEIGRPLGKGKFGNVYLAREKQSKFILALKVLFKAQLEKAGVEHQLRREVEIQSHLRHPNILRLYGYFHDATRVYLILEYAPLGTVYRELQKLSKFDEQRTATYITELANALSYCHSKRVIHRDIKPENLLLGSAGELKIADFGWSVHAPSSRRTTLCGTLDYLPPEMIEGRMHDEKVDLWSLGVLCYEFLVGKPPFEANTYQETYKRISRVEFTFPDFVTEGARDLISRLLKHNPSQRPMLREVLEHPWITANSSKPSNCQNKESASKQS", "experiment": "Aurora A kinase 33P-ATP filter assay (Reaction Biology Corp.)", "type": "biochemical", "experimental": "(§1) The ability of the compounds of the invention to inhibit FLT3 kinase and Aurora A and Aurora B kinases was determined using the assays described below.\n(§2) Kinase assays were performed at Reaction Biology Corp., Malvern, Pa., USA, using the following general procedure:\n(§3) 1) Prepare indicated substrate in freshly prepared Base Reaction Buffer (20 mM Hepes pH 7.5, 10 mM MgCl2, 1 mM EGTA, 0.02% Brij35, 0.02 mg/ml BSA, 0.1 mM Na3VO4, 2 mM DTT, 1% DMSO).\n(§4) 2) Deliver cofactors (1.5 mM CaCl2, 16 ug/mL Calmodulin, 2 mM MnCl2) to the substrate solution above.\n(§5) 3) Deliver indicated kinase into the substrate solution and gently mix\n(§6) 4) Deliver varying concentrations of test compound in DMSO into the kinase reaction mixture.\n(§7) 5) Deliver ^33P-ATP (specific activity 0.01 µCi/µL final) into the reaction mixture to initiate the reaction.\n(§8) 6) Incubate kinase reaction for 120 min at room temperature.\n(§9) 7) Reactions are spotted onto P81 ion exchange filter paper (Whatman #3698-915)\n(§10) 8) Unbound phosphate is removed by washing filters extensively in 0.75% phosphoric acid.\n(§11) 9) ^33P signal was determined using Typhoon phosphorimagers (GE Healthcare).\n(§12) Substrates: Kemptide=[H-LRRASLG] Abltide=[[…]]"}, "[2]": {"target": "Aurora B kinase (Homo sapiens (Human), UniProt Q96GD4)", "sequence (Q96GD4 whole entry)": "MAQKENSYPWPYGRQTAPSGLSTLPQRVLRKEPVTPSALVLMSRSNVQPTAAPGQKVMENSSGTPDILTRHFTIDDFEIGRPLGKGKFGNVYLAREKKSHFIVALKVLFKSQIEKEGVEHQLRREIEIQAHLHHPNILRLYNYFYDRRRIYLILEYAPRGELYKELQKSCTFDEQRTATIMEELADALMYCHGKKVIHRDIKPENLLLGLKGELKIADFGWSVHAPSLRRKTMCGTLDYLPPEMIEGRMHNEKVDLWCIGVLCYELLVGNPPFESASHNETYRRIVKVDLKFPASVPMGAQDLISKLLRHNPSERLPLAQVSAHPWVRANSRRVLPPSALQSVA", "experiment": "Aurora B kinase 33P-ATP filter assay (Reaction Biology Corp.)", "type": "biochemical", "experimental": "as §1, §2, §3, §4, §5, §6, §7, §8, §9, §10, §11, §12"}, "[3]": {"target": "FLT3 kinase (Homo sapiens (Human), UniProt P36888)", "sequence (P36888 27-993)": "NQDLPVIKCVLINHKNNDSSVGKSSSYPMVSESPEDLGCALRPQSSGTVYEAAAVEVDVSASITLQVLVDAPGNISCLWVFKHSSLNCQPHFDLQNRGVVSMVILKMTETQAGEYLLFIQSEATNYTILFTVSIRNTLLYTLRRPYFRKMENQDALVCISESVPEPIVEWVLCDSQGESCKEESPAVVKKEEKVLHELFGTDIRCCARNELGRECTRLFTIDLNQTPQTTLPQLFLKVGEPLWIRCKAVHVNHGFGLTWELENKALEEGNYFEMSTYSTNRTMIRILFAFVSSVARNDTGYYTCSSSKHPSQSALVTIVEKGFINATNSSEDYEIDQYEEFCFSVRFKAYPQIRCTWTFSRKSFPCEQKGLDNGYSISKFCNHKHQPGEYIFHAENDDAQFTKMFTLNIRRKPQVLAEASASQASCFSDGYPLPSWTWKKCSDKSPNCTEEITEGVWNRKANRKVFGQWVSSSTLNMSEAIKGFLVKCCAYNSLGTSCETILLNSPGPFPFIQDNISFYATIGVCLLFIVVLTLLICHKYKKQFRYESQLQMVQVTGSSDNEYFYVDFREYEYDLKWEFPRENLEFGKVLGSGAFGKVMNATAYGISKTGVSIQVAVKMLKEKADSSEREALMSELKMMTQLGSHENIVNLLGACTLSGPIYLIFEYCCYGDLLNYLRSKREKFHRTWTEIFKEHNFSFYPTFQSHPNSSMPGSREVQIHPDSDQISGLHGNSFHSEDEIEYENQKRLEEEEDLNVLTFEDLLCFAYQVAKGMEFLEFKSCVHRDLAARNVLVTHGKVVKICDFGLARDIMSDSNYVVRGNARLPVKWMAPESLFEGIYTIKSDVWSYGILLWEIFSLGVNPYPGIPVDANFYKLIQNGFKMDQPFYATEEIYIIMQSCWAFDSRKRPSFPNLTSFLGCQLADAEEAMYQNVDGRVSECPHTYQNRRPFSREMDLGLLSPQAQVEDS", "experiment": "FLT3 kinase 33P-ATP filter assay (Reaction Biology Corp.)", "type": "biochemical", "experimental": "as §1, §2, §3, §4, §5, §6, §7, §8, §9, §10, §11, §12"}, "[4]": {"system": "HCT-116", "experiment": "Polyploid phenotype in HCT-116 cells", "type": "cell-based, human", "experimental": "The anti-proliferative activities of compounds of the invention are determined by measuring the ability of the compounds to inhibit the growth of the colorectal cancer derived cell-line HCT-116. Inhibition of cell growth is measured using the Alamar Blue assay (Nociari et al., Journal of Immunological Methods (1998) 213, 157-167). The method is based on the ability of viable cells to reduce resazurin to its fluorescent product resorufin. For each proliferation assay cells are plated onto 96 well plates and allowed to recover for 16 hours prior to the addition of inhibitor compounds for a further 96 hours. At the end of the incubation period 10% (v/v) Alamar Blue is added and incubated for a further 6 hours prior to determination of fluorescent product at Excitation 535 nm and Emission 590 nm. All cell lines are obtained from ECACC (European Collection of cell Cultures).\nThe activities of the compounds of the invention against the human colorectal cancer cell line HCT-116 are shown the in the table below. The column headed HCT-116 96 Hrs refers to the concentration of compound required to reduce the proliferation of HCT-116 cells by 50% following a 96 h period of exposure. The column headed [Polyploidy] refers to the lowest concentration of compound required to produce a distinct polyploid phenotype, believed to be due to Aurora B inhibition."}, "[5]": {"system": "CCRF-CEM", "experiment": "CellTiter-Blue assay, haematological cell line", "type": "cell-based", "settings": "Homo sapiens, 96 h; CCRF-CEM (ALL), four days treatment", "experimental": "(§13) The compounds of Examples 2 and 7 were tested against a range of human haematological cell lines using the CellTiter-Blue® assay (#G8081, Promega) according to the manufacturer's instructions. Cells were harvested from exponential phase cultures, counted and plated in 96 well flat-bottom microtiter plates at a cell density of 20,000-90,000 cells/well. After a 24 h recovery period to allow the cells to resume exponential growth, 10 μl of culture medium (four control wells/plate) or of culture medium with test compound were added. The compounds were applied in duplicates at ten concentrations and treatment continued for four days. After treatment of cells, 10 μl/well CellTiter-Blue® reagent was added. Following an incubation period of up to four hours, fluorescence (FU) was measured by using the EnVision Xcite multilabel reader (excitation λ=531 nm, emission λ=615 nm). The compounds were tested in two to four independent experiments for each cell line."}, "[6]": {"system": "EM-2", "experiment": "CellTiter-Blue assay, haematological cell line", "type": "cell-based", "settings": "Homo sapiens, 96 h; EM-2 (CML), four days treatment", "experimental": "as §13"}, "[7]": {"system": "HL-60", "experiment": "CellTiter-Blue assay, haematological cell line", "type": "cell-based", "settings": "Homo sapiens, 96 h; HL-60 (AML), four days treatment", "experimental": "as §13"}, "[8]": {"system": "JURL-MK1", "experiment": "CellTiter-Blue assay, haematological cell line", "type": "cell-based", "settings": "Homo sapiens, 96 h; JURL-MK1 (CML), four days treatment", "experimental": "as §13"}, "[9]": {"system": "KCL-22", "experiment": "CellTiter-Blue assay, haematological cell line", "type": "cell-based", "settings": "Homo sapiens, 96 h; KCL-22 (CML), four days treatment", "experimental": "as §13"}, "[10]": {"system": "KG-1", "experiment": "CellTiter-Blue assay, haematological cell line", "type": "cell-based", "settings": "Homo sapiens, 96 h; KG-1 (AML), four days treatment", "experimental": "as §13"}, "[11]": {"system": "LP-1", "experiment": "CellTiter-Blue assay, haematological cell line", "type": "cell-based", "settings": "Homo sapiens, 96 h; LP-1 (MM), four days treatment", "experimental": "as §13"}, "[12]": {"system": "MV4-11", "experiment": "CellTiter-Blue assay, haematological cell line", "type": "cell-based", "settings": "Homo sapiens, 96 h; MV4-11 (AML), four days treatment", "experimental": "as §13"}, "[13]": {"system": "NOMO-1", "experiment": "CellTiter-Blue assay, haematological cell line", "type": "cell-based", "settings": "Homo sapiens, 96 h; NOMO-1 (AML), four days treatment", "experimental": "as §13"}, "[14]": {"system": "OCI-AML2", "experiment": "CellTiter-Blue assay, haematological cell line", "type": "cell-based", "settings": "Homo sapiens, 96 h; OCI-AML2 (AML), four days treatment", "experimental": "as §13"}, "[15]": {"system": "PL-21", "experiment": "CellTiter-Blue assay, haematological cell line", "type": "cell-based", "settings": "Homo sapiens, 96 h; PL-21 (AML), four days treatment", "experimental": "as §13"}, "[16]": {"system": "RPMI8226", "experiment": "CellTiter-Blue assay, haematological cell line", "type": "cell-based", "settings": "Homo sapiens, RPMI-8226, 96 h; RPMI8226 (MM), four days treatment"}, "[17]": {"experiment": "Body weight / tolerability in MV4-11-bearing nude mice", "type": "in vivo, Balb/c nude mouse", "experimental": "A total of 52 female nude mice were used. The mice were allowed 3 days of acclimatization period before starting the experiment. Mice were implanted subcutaneously (s.c.) with 200 μl of 1×10^7MV4-11 tumour cells in 50% Matrigel in the right flank at the beginning of the study. When tumours reached an average volume of 100-150 mm^3, 32 mice out of the 52 were selected based on tumour volume, and randomly assigned to 4 groups prior to dosing. Each treatment group consisted of 8 tumour-bearing animals (n=8/group).\nA comparison group of mice were treated with cytarabine once daily for 5 days on, 2 days off, for 4 cycles.\nMice were weighed at each dosing and the tumour sizes recorded twice each week. Mice were observed closely for any overt signs of adverse, treatment-related side effects and these were recorded if and when they were observed.\nMice were euthanized by CO2 exposure after 4-cycle dose. The tumour volume, weight of dissected tumours, and the mouse body weight were measured and recorded. The tumour inhibitory rate (IR) was calculated by the formula IR=(WV−WT)/WV×100%."}}, "data": [{"smiles": "Cc1ccc2[nH]ccc2c1-c1nc(C(N)=O)c(-c2ccc(N3CCNC(C)(C)C3)cc2)o1", "note": "[Example 2, 2-(5-Methyl-1H-Indol-4-yl)-5-[4-(3,3-dimethyl-piperazin-1-yl)-phenyl]-oxazole-4-carboxylic acid amide]", "values": [{"measurement": "IC50", "setting": "[1]", "result": 13.6, "unit": "nM"}, {"measurement": "IC50", "setting": "[2]", "result": 5.9, "unit": "nM"}, {"measurement": "IC50", "setting": "[3]", "result": 0.77, "unit": "nM"}, {"measurement": "[Polyploidy] lowest concentration producing a distinct polyploid phenotype", "setting": "[4]", "result": 0.03, "unit": "µM"}, {"measurement": "IC50", "setting": "[5]", "result": 50, "unit": "nM"}, {"measurement": "IC50", "setting": "[6]", "result": 604, "unit": "nM"}, {"measurement": "IC50", "setting": "[7]", "result": 64, "unit": "nM"}, {"measurement": "IC50", "setting": "[8]", "result": 141, "unit": "nM"}, {"measurement": "IC50", "setting": "[9]", "result": 417, "unit": "nM"}, {"measurement": "IC50", "setting": "[10]", "result": 76, "unit": "nM"}, {"measurement": "IC50", "setting": "[11]", "result": 1070, "unit": "nM"}, {"measurement": "IC50", "setting": "[12]", "result": 9, "unit": "nM"}, {"measurement": "IC50", "setting": "[13]", "result": 95, "unit": "nM"}, {"measurement": "IC50", "setting": "[14]", "result": 103, "unit": "nM"}, {"measurement": "IC50", "setting": "[15]", "result": 99, "unit": "nM"}, {"measurement": "IC50", "setting": "[16]", "result": 2140, "unit": "nM"}, {"measurement": "toxicity in xenograft study", "setting": "[17]; 20 mg/kg IV BID", "result": "without any obvious toxicity"}]}, {"smiles": "Cc1cc(F)c2[nH]ccc2c1-c1nc(C(N)=O)c(-c2ccc(N3CCNC(C)(C)C3)cc2)o1", "note": "[Example 7, 2-(5-Methyl-7-Fluoro-1H-Indol-4-yl)-5-[4-(3,3-dimethyl-piperazin-1-yl)-phenyl]-oxazole-4-carboxylic acid amide]", "values": [{"measurement": "IC50", "setting": "[1]", "result": 42.5, "unit": "nM"}, {"measurement": "IC50", "setting": "[3]", "result": 0.48, "unit": "nM"}, {"measurement": "[Polyploidy] lowest concentration producing a distinct polyploid phenotype", "setting": "[4]", "result": 0.1, "unit": "µM"}, {"measurement": "IC50", "setting": "[5]", "result": 46, "unit": "nM"}, {"measurement": "IC50", "setting": "[6]", "result": 493, "unit": "nM"}, {"measurement": "IC50", "setting": "[7]", "result": 52, "unit": "nM"}, {"measurement": "IC50", "setting": "[8]", "result": 98, "unit": "nM"}, {"measurement": "IC50", "setting": "[9]", "result": 366, "unit": "nM"}, {"measurement": "IC50", "setting": "[10]", "result": 137, "unit": "nM"}, {"measurement": "IC50", "setting": "[11]", "result": 1010, "unit": "nM"}, {"measurement": "IC50", "setting": "[12]", "result": 9, "unit": "nM"}, {"measurement": "IC50", "setting": "[13]", "result": 61, "unit": "nM"}, {"measurement": "IC50", "setting": "[14]", "result": 91, "unit": "nM"}, {"measurement": "IC50", "setting": "[15]", "result": 91, "unit": "nM"}, {"measurement": "toxicity in xenograft study", "setting": "[17]; 30 mg/kg IV BID", "result": "without any obvious toxicity"}]}]}
